From US20140343159A1, “FORMULATION OF SMALL ADRENERGIC AGONIST SALT FORMS IN ORGANIC SOLVENTS” (PROCERTUS BIOPHARM, INC., priority 2011, published 2014)
Blank lines part the entries; values can stand above or below the compound they belong to.

Assays:
radiation-treated rats [1] = settings: topical, applied prior to irradiation of rat skin; cited from earlier work
β2 adrenergic receptor = β2 adrenergic receptor (Homo sapiens, UniProt P07550); settings: cited from earlier work
[2] = assay type: physicochemical
Protocol: (§1) Known weights of (−) norepinephrine-tartrate dry powder were added to individual, 2.0 ml clear glass vials. An appropriate volume of ethanol and water at a ratio of 70:30 by volume solvent was then added to achieve the indicated concentrations. Sealed vials were vortexed for five seconds and then left at room temperature for 24 hr in the dark before examination to determine turbidity of liquid due to undissolved material.
Known weights of (−) norepinephrine-tartrate or (+/−) norepinephrine-HCl dry powders were added to individual, 2.0 ml, clear glass vials. An appropriate volume of ethanol to water (70:30) solvent was then added to achieve the indicated concentrations. Sealed vials were vortexed for five seconds and then left at room temperature for 24 hr in the dark before examination to determine turbidity of liquid due to undissolved material. Table 2, below, provides the solubility of (+/−) norepinephrine-HCl and (−) norepinephrine-tartrate in topical delivery vehicle of ethanol and water (70:30).
as §1, with “the indicated norepinephrine salts” for “(−) norepinephrine-tartrate dry powder”, “ml,” for “ml”, “of” for “of ethanol and water at a ratio of”, “(ethanol:water)” for “by volume”, “hr” for “hr in the dark”

radiation-treated rats [3] = assay: Radiodermatitis in radiation-treated rats after topical vasoconstrictor; assay type: in vivo, rat; settings: two rats, 600 mM in ethanol:water (70:30) delivery vehicle applied prior to irradiation (FIG. 1)
Text: In the model, a topical vasoconstrictor was applied to a shaved area on the backs of rats prior to irradiation with a Cs^137 source. The severity of radiodermatitis was scored on day 13. Vasoconstriction at the topical treatment site was evidenced by the transient occurrence of a visible skin blanch that correlates with therapeutic efficacy in the rat radiodermatitis model. This skin blanch may serve as a surrogate efficacy marker for clinical studies. The general strategy of using topical vasoconstrictors to prevent these cancer therapy side effects is addressed in U.S. Pub. No 2007/0077219, which is incorporated by reference in its entirety herein.

[4] = Stability of (−) norepinephrine-HCl dissolved in water at 1000 mM; assay type: physicochemical; settings: 4° C. and 24° C., weeks/months following formulation
Protocol: (−) norepinephrine-HCl dissolved in water at 1000 mM is stable at 4° C. and 24° C. as determined by the absence of precipitate or colored oxidation products in the weeks/months following initial formulation. Previous formulations of norepinephrine-tartrate in saline (e.g., Levophed®, Hospira, Inc., Lake Forest, Ill.) have norepinephrine concentrations of 1-5 mM.
(−) norepinephrine-HCl was weighed into a glass vial. An appropriate volume of N2-purged water ([…] with vigorous N2 bubbling and stir bar) was delivered to the vial. The vial headspace was flushed with N2 gas and the vial was sealed. The vial was vortexed for 5 seconds to produce a clear solution. A weighed amount of dry citric acid solid was added to the (−) norepinephrine-HCl solution, the vial headspace was flushed with N2 and the vial was sealed. The vial was vortexed until the solution was clear. 200 μl aliquots of (−) norepinephrine-HCl+citric acid solution were added to 2.0 ml, clear, glass vials (previously rinsed with ethanol and dried). The vial headspaces were optionally flushed with N2 gas and the vials were sealed. 3.0 ml of (−) norepinephrine-HCl+citric acid solution was transferred to a glass vial, an appropriate dry weight of sodium EDTA was added to the vial, the vial headspace was flushed with N2 gas, the vial was sealed and the vial was vortexed until clear. […]

[5] = super-saturated solutions for topical application; cited from earlier work
human skin = assay: Skin blanch response in human skin following topical application; assay type: in vivo; settings: 600 mM solution in 70:30 ethanol:water compared with supersaturated 300 mM (−) norepinephrine-tartrate
Protocol: Appropriate weights of each dry norepinephrine salt were weighed into clear glass vials, and appropriate volumes of ethanol and water at a ratio of 70:30, by volume, were added to achieve the indicated norepinephrine concentrations. The (+/−) norepinephrine-HCl dissolved to clarity with 5 second mixing at room temperature, and the (−) norepinephrine-tartrate required heating to 60° C. for 5 minutes and then mixing to clarify. 25 μL aliquots of each formulation were applied using a pipettor over multiple 2×2 cm patches of skin on volunteer's arm over a 20 second period. Images to record skin blanch onset, degree and duration were begun at 2 minute post-application. % Skin Blanch scores were assigned by visual evaluation. 100% Skin Blanch equaled the skin blanch seen after pressing firmly on the skin and quickly releasing.
Equal concentrations (300 mM) of the (−) norepinephrine enantiomer, either alone as the tartrate salt or in the presence of an equal amount of the (+) enantiomer HCl salt, were applied to human skin in the ethanol:water (70:30) delivery vehicle, and the pharmacologic efficacy of the (−) norepinephrine was scored based upon its ability to induce a skin blanch response by binding to al adrenergic receptors in the smooth muscle cells of the subcutaneous dermal blood vessels. […]

Chain of β2 adrenergic receptor (P07550 whole entry, species assumed): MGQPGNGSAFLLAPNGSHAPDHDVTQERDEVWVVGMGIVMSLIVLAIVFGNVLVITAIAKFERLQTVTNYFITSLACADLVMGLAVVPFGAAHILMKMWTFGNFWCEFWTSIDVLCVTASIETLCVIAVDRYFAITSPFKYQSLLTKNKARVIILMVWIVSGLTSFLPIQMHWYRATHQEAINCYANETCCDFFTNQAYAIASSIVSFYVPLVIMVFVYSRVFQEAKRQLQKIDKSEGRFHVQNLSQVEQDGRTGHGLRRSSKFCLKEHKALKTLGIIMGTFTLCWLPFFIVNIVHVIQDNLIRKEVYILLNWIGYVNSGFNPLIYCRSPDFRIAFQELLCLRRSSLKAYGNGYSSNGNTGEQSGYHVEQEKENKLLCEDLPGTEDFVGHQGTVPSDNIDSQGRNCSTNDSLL

Compound: NC[C@H](O)c1ccc(O)c(O)c1 [norepinephrine]
- protection against development of radiation dermatitis (radiation-treated rats [1]): the same protection
- binding to the β2 adrenergic receptor (β2 adrenergic receptor): does not bind

- maximum solubility [2]: at least 2000 mM
- stability by absence of precipitate or colored oxidation products [4]: stable
Compound: Cl.NC[C@H](O)c1ccc(O)c(O)c1 [(−) norepinephrine-HCl]
- occurrence of radiodermatitis (radiation-treated rats [3]): absence of radiodermatitis

- maximum solubility [2]: 200 mM
- solubility limit [2]: about 200 mM
Compound: (−) norepinephrine-tartrate
- stability of super-saturated solution [5]: stable for only a few hours

- maximum solubility [2]: at least 2000 mM
- solubility relative to (−) norepinephrine-tartrate [2]: at least 10 fold
Compound: Cl.NCC(O)c1ccc(O)c(O)c1 (racemic) [(+/−) norepinephrine-HCl]
- vasoconstrictor activity in inducing a skin blanch response (human skin): at least the same activity

Compound: CNC[C@H](O)c1ccc(O)c(O)c1 [epinephrine]
- protection against development of radiation dermatitis (radiation-treated rats [1]): complete protection
